Assay results: ChEMBL document CHEMBL2046294, “Lipo-γ-AApeptides as a new class of potent and broad-spectrum antimicrobial agents” (J Med Chem, 2012)
≈ marks a conversion by molar mass, not a printed value. Calls of active or inactive are those of the source. The calls are words filed in the database; no cut-off is given here.

Legend:
Bacillus subtilis [1] = assay: Antibacterial activity against Bacillus subtilis BR151 assessed as loss membrane potential at 10 ug/ml; format: functional, organism-based
Bacillus subtilis [2] = assay: Antibacterial activity against Bacillus subtilis BR151 after 24 hrs by broth micro-dilution method; format: functional; details: BR151, 24 h
Escherichia coli [3] = assay: Antibacterial activity against Escherichia coli JM109 assessed as membrane disruption at 10 ug/ml after 2 hrs by DAPI staining-based fluorescence microscopic analysis; format: functional, organism-based
Escherichia coli [4] = assay: Antibacterial activity against Escherichia coli JM109 after 24 hrs by broth micro-dilution method; format: functional; details: JM109, 24 h
Enterococcus faecalis = assay: Antibacterial activity against vancomycin-resistant Enterococcus faecalis ATCC 700802 after 24 hrs by broth micro-dilution method; format: functional; details: ATCC 700802, 24 h
Escherichia coli [5] = assay: Antibacterial activity against Escherichia coli JM109 assessed as membrane disruption at 10 ug/ml after 2 hrs by propidium iodide staining-based fluorescence microscopic analysis; format: functional, organism-based
Pseudomonas aeruginosa = assay: Antibacterial activity against multidrug-resistant Pseudomonas aeruginosa ATCC 27853 after 24 hrs by broth micro-dilution method; format: functional; details: ATCC 27853, 24 h
Bacillus subtilis [6] = assay: Antibacterial activity against Bacillus subtilis BR151 assessed as membrane disruption at 10 ug/ml after 2 hrs by propidium iodide staining-based fluorescence microscopic analysis; format: functional, organism-based
Bacillus subtilis [7] = assay: Antibacterial activity against Bacillus subtilis BR151 assessed as membrane disruption at 10 ug/ml after 2 hrs by DAPI staining-based fluorescence microscopic analysis; format: functional, organism-based
Staphylococcus aureus [8] = assay: Antibacterial activity against methicillin-resistant Staphylococcus aureus ATCC 33592 assessed as lipid membrane depolarization after 10 mins by DiSC3-5 staining-based fluorescence analysis; format: functional, organism-based
Staphylococcus aureus [9] = assay: Antibacterial activity against methicillin-resistant Staphylococcus aureus ATCC 33592 after 24 hrs by broth micro-dilution method; format: functional; details: ATCC 33592, 24 h
[10] = Selectivity ratio of HC50 for human RBC to MIC for methicillin-resistant Staphylococcus aureus ATCC 33592; format: functional
Candida albicans = assay: Antifungal activity against Candida albicans ATCC 10231 after 48 hrs by broth micro-dilution method; format: functional; details: ATCC 10231, 48 h
Klebsiella pneumoniae = assay: Antibacterial activity against Klebsiella pneumoniae ATCC 13383 after 24 hrs by broth micro-dilution method; format: functional; details: ATCC 13383, 24 h
[11] = test system: Staphylococcus epidermidis; assay: Antibacterial activity against multidrug-resistant Staphylococcus epidermidis RP62A after 24 hrs by broth micro-dilution method; format: functional
[12] = Toxicity in human RBC assessed as hemolysis after 1 hr; format: cell-based, Erythrocyte; details: for HC10: erythrocyte, 1 h; for HC50 at 1 h: red blood cells
Escherichia coli [13] = assay: Antibacterial activity against Escherichia coli JM109 assessed as loss membrane potential at 10 ug/ml; format: functional, organism-based
Staphylococcus aureus [14] = assay: Resistance ratio, MIC for methicillin-resistant Staphylococcus aureus ATCC 33592 grown on half-MIC concentration for 3 passages to MIC for methicillin-resistant Staphylococcus aureus ATCC 33592 after 24 hrs; format: functional

| Structure (SMILES) | Activity (Bacillus subtilis [1]) | MIC (Bacillus subtilis [2]) | Activity (Escherichia coli [3]) | MIC (Escherichia coli [4]) | MIC (Enterococcus faecalis) | Activity (Escherichia coli [5]) | MIC (Pseudomonas aeruginosa) | Activity (Bacillus subtilis [6]) | Activity (Bacillus subtilis [7]) | Activity (Staphylococcus aureus [8]) | MIC (Staphylococcus aureus [9]) | Ratio [10] | MIC (Candida albicans) | MIC (Klebsiella pneumoniae) | MIC [11] | HC10 [12] | HC50 at 1 h [12] | Activity (Escherichia coli [13]) | Ratio (Staphylococcus aureus [14]) |
| --- | --- | --- | --- | --- | --- | --- | --- | --- | --- | --- | --- | --- | --- | --- | --- | --- | --- | --- | --- |
| CCCCCCCC/C=C\CCCCCCCC(=O)N[C@@H](C)CN(CC(=O)N[C@@H](C)CN(CC(=O)N[C@@H](CC(C)C)CN(CC(=O)N[C@@H](CC(C)C)CN(CC(=O)N[C@@H](CC(C)C)CN(CC(N)=O)C(=O)CCCN)C(=O)CCCN)C(=O)CCCN)C(C)=O)C(C)=O | Active | 3 µg/mL (≈ 2.28 µM) | Active | 3 µg/mL (≈ 2.28 µM) | 4 µg/mL (≈ 3.04 µM) | Active | 3 µg/mL (≈ 2.28 µM) | Active | Active | Active | 3 µg/mL (≈ 2.28 µM) | > 167 | 3 µg/mL (≈ 2.28 µM) | 3 µg/mL (≈ 2.28 µM) | 3 µg/mL (≈ 2.28 µM) | 100 µg/mL | > 500 µg/mL | Active | – |
| CC(C)C[C@@H](CN(CC(=O)N[C@@H](CCCCN)CN(CC(N)=O)C(=O)CCc1ccccc1)C(=O)CCc1ccccc1)NC(=O)CN(C[C@H](CCCCN)NC(=O)CN(C[C@H](CCCCN)NC(=O)CN(C[C@H](CC(C)C)NC(=O)CN(C[C@H](CCCCN)NC(=O)CN(C[C@@H](N)CCCCN)C(=O)CCc1ccccc1)C(=O)CCc1ccccc1)C(=O)CCc1ccccc1)C(=O)CCc1ccccc1)C(=O)CCc1ccccc1 | – | 2 µg/mL (≈ 0.947 µM) | – | 3 µg/mL (≈ 1.42 µM) | 5 µg/mL (≈ 2.37 µM) | – | > 50 µg/mL | – | – | – | 5 µg/mL (≈ 2.37 µM) | 60 | 8 µg/mL (≈ 3.79 µM) | 5 µg/mL (≈ 2.37 µM) | 5 µg/mL (≈ 2.37 µM) | 75 µg/mL | 300 µg/mL | – | – |
| CCCCCCCCCCCC(=O)N[C@@H](CCCCN)CN(CC(N)=O)C(=O)CCCN | – | > 50 µg/mL | – | > 50 µg/mL | > 50 µg/mL | – | > 50 µg/mL | – | – | – | > 50 µg/mL | – | > 50 µg/mL | > 50 µg/mL | > 50 µg/mL | 400 µg/mL | > 500 µg/mL | – | – |
| CCCCCCCCCCCCCCCC(=O)N[C@@H](C)CN(CC(=O)N[C@@H](C)CN(CC(=O)N[C@@H](CCC(=O)O)CN(CC(=O)N[C@@H](CCC(=O)O)CN(CC(=O)N[C@@H](CCC(=O)O)CN(CC(N)=O)C(=O)CC(=O)O)C(=O)CC(=O)O)C(=O)CC(=O)O)C(C)=O)C(C)=O | – | > 100 µg/mL | – | > 100 µg/mL | > 100 µg/mL | – | > 100 µg/mL | – | – | – | > 100 µg/mL | – | > 100 µg/mL | > 100 µg/mL | > 100 µg/mL | 250 µg/mL | > 500 µg/mL | – | – |
| CCn1cc(C(=O)O)c(=O)c2cc(F)c(N3CCNCC3)cc21 [NORFLOXACIN] | – | – | – | – | – | – | – | – | – | – | – | – | – | – | – | – | – | – | >20 |
| CCCCCCCCCCCCCCCC(=O)N[C@@H](C)CN(CC(=O)N[C@@H](C)CN(CC(=O)N[C@@H](CCCCN)CN(CC(=O)N[C@@H](CCCCN)CN(CC(=O)N[C@@H](CCCCN)CN(CC(N)=O)C(=O)CCCN)C(=O)CCCN)C(=O)CCCN)C(C)=O)C(C)=O | – | 2.5 µg/mL (≈ 1.87 µM) | – | 2.5 µg/mL (≈ 1.87 µM) | 10 µg/mL (≈ 7.48 µM) | – | 15 µg/mL (≈ 11.2 µM) | – | – | Active | 10 µg/mL (≈ 7.48 µM) | > 50 | 7.5 µg/mL (≈ 5.61 µM) | 15 µg/mL (≈ 11.2 µM) | 10 µg/mL (≈ 7.48 µM) | 200 µg/mL | > 500 µg/mL | – | – |
| CCCCCCCCCCCCCCCC(=O)N[C@@H](CCCCN)CN(CC(=O)N[C@@H](CCCCN)CN(CC(N)=O)C(=O)CCCN)C(=O)CCCN | – | 1.5 µg/mL (≈ 1.95 µM) | – | 30 µg/mL (≈ 39.1 µM) | 8 µg/mL (≈ 10.4 µM) | – | 20 µg/mL (≈ 26 µM) | – | – | Active | 5 µg/mL (≈ 6.51 µM) | 60 | 2 µg/mL (≈ 2.6 µM) | 20 µg/mL (≈ 26 µM) | 2.5 µg/mL (≈ 3.25 µM) | 40 µg/mL | 300 µg/mL | – | – |
| CCCCCCCCCCCCCCCC(=O)N[C@@H](CCCCN)CN(CC(N)=O)C(=O)CCCN | – | 1.5 µg/mL (≈ 2.93 µM) | – | 2.5 µg/mL (≈ 4.88 µM) | 2.5 µg/mL (≈ 4.88 µM) | – | 10 µg/mL (≈ 19.5 µM) | – | – | Active | 2.5 µg/mL (≈ 4.88 µM) | 16 | 2 µg/mL (≈ 3.91 µM) | 35 µg/mL (≈ 68.4 µM) | 2 µg/mL (≈ 3.91 µM) | 25 µg/mL | 40 µg/mL | – | – |
